From paper PMC4865847, “Putative histidine kinase inhibitors with antibacterial effect against multi-drug resistant clinical isolates identified by in vitro and in silico screens” (Scientific Reports, 2016)
Converted amounts (≈) assume the structure as drawn. Where two headings read alike, the source gives them in different places.

How the values were obtained:
Hemolysis assay = format: cell-based; conditions: human
Method: Hemolytic activity against human erythrocytes taken from a healthy donor was measured as previously described. The hemolysis experiments were carried out in accordance with the guidelines of the United Arab Emirates University (UAEU) Research Ethics Review Board. All experimental protocols were approved by the Research Ethics Review Board of UAEU and informed consent was obtained from all donors.

S. aureus PhoR (PhoR^S) = S. aureus PhoR (PhoR^S) (Staphylococcus aureus, UniProt Q2FXN7); experiment: Aggregation analysis by native-PAGE, PhoR^S; conditions: 2 mM (S5 and S6 5 mM), 10% DMSO
S. aureus PhoR (PhoR^S), sequence (Q2FXN7 entry or part of it): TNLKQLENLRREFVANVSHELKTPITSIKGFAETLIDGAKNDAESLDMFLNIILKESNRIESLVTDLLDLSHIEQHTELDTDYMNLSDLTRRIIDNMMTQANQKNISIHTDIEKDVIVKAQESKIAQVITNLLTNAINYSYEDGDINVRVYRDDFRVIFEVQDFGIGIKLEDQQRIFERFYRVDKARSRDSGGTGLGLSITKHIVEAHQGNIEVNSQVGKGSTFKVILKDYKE
Method: (§1) E. coli PhoR and EnvZ, and S. aureus PhoR ([…], final concentration) were prepared in kinase buffer. […] DMSO in the assays was maintained to a final concentration 10% (v/v). After 30 min of incubation at room temperature Native polyacrylamide gel electrophoresis (Native-PAGE) loading buffer was added and samples loaded. Coomassie blue staining was used for protein visualization.

Klebsiella pneumoniae = experiment: Antibacterial susceptibility testing (MIC), K. pneumoniae; format: cell-based; conditions: Klebsiella pneumoniae, ATCC700603, strain ATCC 700603
Method: (§2) Bacterial strains used in this study for antibacterial susceptibility testing (Table S5) were propagated using standard microbiological procedures. Minimal inhibitory concentrations (MICs) were determined following a standard double-dilution method. MICs were recorded as the lowest concentration of the compound where no visible growth was observed. After plating the dilutions around the MIC or growing them in fresh MH media, minimal bactericidal concentration (MBC) was recorded as the lowest concentration of the compound at which no colonies were formed or no growth was observed, respectively. For S. pneumoniae MICs were determined by adapting the standard double-dilution method to anaerobic conditions and of this microorganism (use of Todd Hewitt Yeast extract with 200 U/mL of catalase and continuous monitoring of growth).

E. coli PhoR (PhoR^E) = biological target: T1, E. coli PhoR (PhoR^E) (Escherichia coli, UniProt P08400); experiment: Aggregation analysis by native-PAGE, PhoR^E; conditions: 2 mM (S5 and S6 5 mM), 10% DMSO
T1 construct: The catalytic portion (DHp and CA domain) of E. coli PhoR (PhoR^E); made in house; host or cells: E. coli RIL
T1 sequence (P08400 210-425): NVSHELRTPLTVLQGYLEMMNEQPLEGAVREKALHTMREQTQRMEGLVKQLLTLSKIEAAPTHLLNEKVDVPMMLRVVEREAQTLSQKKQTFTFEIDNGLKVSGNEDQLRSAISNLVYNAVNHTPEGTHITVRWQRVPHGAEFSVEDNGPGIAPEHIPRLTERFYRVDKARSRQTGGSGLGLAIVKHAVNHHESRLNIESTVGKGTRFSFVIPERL
Method: as §1

[1] = Solubility in kinase buffer; format: physicochemical; conditions: kinase buffer in the presence of 10% DMSO
Acinetobacter baumannii = experiment: Antibacterial susceptibility testing (MIC), A. baumannii; format: cell-based; conditions: MDR clinical isolate NM8, read-out: MIC A. baumannii NM8
Method: as §2

[2] = test system: Staphylococcus epidermidis; experiment: Antibacterial susceptibility testing (MIC/MBC), S. epidermidis; format: cell-based; conditions: Staphylococcus epidermidis
Method: (§3) Minimal inhibitory concentrations (MICs) were determined following a standard double-dilution method. […] For S. pneumoniae MICs were determined by adapting the standard double-dilution method to anaerobic conditions and of this microorganism (use of Todd Hewitt Yeast extract with 200 U/mL of catalase and continuous monitoring of growth).

Pseudomonas aeruginosa = experiment: Antibacterial susceptibility testing (MIC), P. aeruginosa; format: cell-based; conditions: Pseudomonas aeruginosa, ATCC27853; strain ATCC 27853
Method: as §2

Staphylococcus aureus = experiment: Antibacterial susceptibility testing (MIC/MBC), S. aureus; format: cell-based; conditions: Staphylococcus aureus
Method: as §3

[3] = test system: Stenotrophomonas maltophilia; experiment: Antibacterial susceptibility testing (MIC), S. maltophilia; format: cell-based; conditions: clinical isolate B32/1, read-out: MIC S. maltophilia B32/1
Method: as §2

Streptococcus suis = experiment: Antibacterial susceptibility testing (MIC), S. suis; format: cell-based; conditions: Streptococcus suis, read-out: MIC Streptococcus suis 3881/S10, strain 3881/S10
Method: as §2

Nc1nc(-c2ccc(Br)cc2)cs1 [F1, 4-(4-bromophenyl)-1,3-thiazol-2-amine]
HC50 (Hemolysis assay): > 500 µg/mL
HK aggregation, PhoR^S (S. aureus PhoR (PhoR^S)): do not cause HK aggregation
MIC (Klebsiella pneumoniae): > 500 µg/mL
HK aggregation, PhoR^E (E. coli PhoR (PhoR^E)): do not cause HK aggregation
solubility in kinase buffer [1]: limited solubility
MIC (Acinetobacter baumannii): > 500 µg/mL
MBC ([2]; DSM20044, strain DSM 20044): 250 µg/mL (≈ 980 µM)
MIC ([2]; DSM20044, strain DSM 20044, read-out: MIC S. epidermidis DSM 20044): 4 µg/mL (≈ 15.7 µM)
MIC ([2]; clinical isolate T7/3, read-out: MIC S. epidermidis T7/3): 63 µg/mL (≈ 247 µM)
MIC ([2]; clinical isolate T37/8, read-out: MIC S. epidermidis T37/8): > 500 µg/mL
MIC ([2]; clinical isolate T6119, read-out: MIC S. epidermidis T6119): > 500 µg/mL
MIC ([2]; strain RP62A (biofilm producer), read-out: MIC S. epidermidis RP62A): > 500 µg/mL
MIC ([2]; strain RP62A/1 (non-biofilm producer), read-out: MIC S. epidermidis RP62A/1): 250 µg/mL (≈ 980 µM)
MIC ([2]; summary over clinical isolates, read-out: MICs for S. epidermidis clinical isolates): 63 µg/mL (≈ 247 µM)
MIC (Pseudomonas aeruginosa): > 500 µg/mL
MIC (Staphylococcus aureus; ATCC reference strain 25293, read-out: MIC S. aureus 25293): 125 µg/mL (≈ 490 µM)
MBC (Staphylococcus aureus; DSM20231, strain DSM 20231, read-out: MBC S. aureus DSM 20231): > 500 µg/mL
MIC (Staphylococcus aureus; DSM20231, strain DSM 20231, read-out: MIC S. aureus DSM 20231): 25 µg/mL (≈ 98 µM)
MIC (Staphylococcus aureus; MRSA clinical isolate 145/08, read-out: MIC S. aureus 145/08): 125 µg/mL (≈ 490 µM)
MIC (Staphylococcus aureus; MRSA clinical isolate 274/08, read-out: MIC S. aureus 274/08): 125 µg/mL (≈ 490 µM)
MIC (Staphylococcus aureus; MRSA, MRSA clinical isolate T4/6, read-out: MIC S. aureus T4/6): 125 µg/mL (≈ 490 µM)
MIC (Staphylococcus aureus; MRSA, MRSA clinical isolate V4180, read-out: MIC S. aureus V4180): 125 µg/mL (≈ 490 µM)
MIC (Staphylococcus aureus; MRSA, summary over strains, read-out: MICs for the MRSA strains and S. aureus 25293): 125 to 500 µg/mL (≈ 490 to 1960 µM)
MIC [3]: > 500 µg/mL
MIC (Streptococcus suis): > 500 µg/mL
